According to ChEMBL document CHEMBL1148406, “Inhibition of adenosine deaminase by novel 5:7 fused heterocycles containing the imidazo[4,5-e][1,2,4]triazepine ring system: a structure-activity relationship study” (J Med Chem, 2004):

These molecules were tested against T1, Adenosine deaminase (Bos taurus, UniProt P56658) (assay: Binding affinity towards calf spleen adenosine deaminase was determined).
T1 sequence (P56658 whole entry): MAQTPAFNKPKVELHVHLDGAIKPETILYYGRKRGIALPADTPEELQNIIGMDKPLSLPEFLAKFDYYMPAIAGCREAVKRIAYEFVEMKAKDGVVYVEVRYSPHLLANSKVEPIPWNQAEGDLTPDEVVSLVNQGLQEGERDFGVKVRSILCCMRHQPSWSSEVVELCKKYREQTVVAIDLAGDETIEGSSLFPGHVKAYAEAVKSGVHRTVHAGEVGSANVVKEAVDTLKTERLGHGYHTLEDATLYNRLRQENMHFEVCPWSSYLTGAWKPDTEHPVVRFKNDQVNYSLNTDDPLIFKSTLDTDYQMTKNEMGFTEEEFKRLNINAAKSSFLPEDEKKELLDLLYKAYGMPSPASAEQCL

SMILES	Ki [µM]
COc1ccc(Cn2cnc3c2C(OC(C)C)N(C)N(C)C=N3)cc1 (stereo not drawn)	30
COc1ccc(COC2c3c(ncn3Cc3ccc(OC)cc3)N=CN(C)N2C)cc1 (stereo not drawn)	77
CCCCOC1c2c(ncn2Cc2ccc(OC)cc2)N=CN(C)N1C (stereo not drawn)	15
CCCOC1c2c(ncn2Cc2ccc(OC)cc2)N=CN(C)N1C (stereo not drawn)	12
CCOC1c2c(ncn2Cc2ccc(OC)cc2)N=CN(C)N1C (stereo not drawn)	20

Second part, the molecule after the results:

Ki [µM]	SMILES
23	COCCOC1c2c(ncn2Cc2ccc(OC)cc2)N=CN(C)N1C (stereo not drawn)
24	COc1ccc(Cn2cnc3c2C(OC)N(C)N(C)C=N3)cc1 (stereo not drawn)
93	COc1ccc(Cn2cnc3c2C(OCc2cccc(C)c2)N(C)N(C)C=N3)cc1 (stereo not drawn)
